# Results taken from US8889660B2, “Methods for treating obesity or an obesity related condition” (Case Western Reserve University, priority 2010, dated 2014).
# Entries after “also recorded” stand apart in the source; their conditions may differ.
# Columns and labels:
# [1] = test system: retinoic acid receptor (RAR); assay: Activation of retinoic acid response element (RARE) / RAR; type: cell-based; details: FIGS. 1A-B, 7 and 8
# Text: FIG. 7 is a histogram showing the activation of retinoic acid response element (RARE) by all-trans-retinol (ROL), (13R)-all-trans-13,14-dihydroretinol (DROL R) and (13S)-all-trans-13,14-dihydroretinol (DROL S);
# FIG. 8 is a histogram showing the activation of retinoic acid response element (RARE) by all-trans-retinoic acid (RA), (13R)-all-trans-13,14-dihydroretinoic acid (DRA R) and (13S)-all-trans-13,14-dihydroretinoic acid (DRA S); and
# The at least one receptor may also include a retinoic acid receptor (RAR), such as RAR-α, RAR-β and RAR-γ which, when activated, translocates to a cell nucleus, binds to hormone response element on DNA, and elicits expression or transexpresssion of gene products. Alternatively, at least one response element, such as the RAR response element (RARE), can be activated.
# [2] = biological target: retinol binding protein 4 (RBP4) (Homo sapiens, UniProt P02753); assay: Binding to RBP4 by fluorescence quenching; details: FIG. 9
# Text: FIG. 9 is a series of graphs showing the binding of (R)-all-trans-13,14-dihydroretinol and (S)-all-trans-13,14-dihydroretinol to RBP4, as determined by fluorescence quenching.
# In another aspect of the present invention, the marker corresponding to the level and/or activity of an all-trans-retinol:all-trans-13,14-dihydroretinol saturase polypeptide may comprise a metabolite, such as a retinoid, associated with all-trans-retinol:all-trans-13,14-dihydroretinol saturase activity. The marker can include, for example, a retinoid having a saturated C13-14 double bond. More particularly, the retinoid having a saturated C13-14 double bond can include all-trans-13,14-dihydroretinol and/or all-trans-13,14-dihydrotretinoic acid. […] Increased levels of RBP4 are associated with the metabolic syndrome, diabetic disease and correlate with increased insulin resistance, obesity and visceral adiposity. Various techniques known in the art may be used to detect dihydroretinoid metabolite levels in a tissue sample, including, but not limited to, chromatography-based methods, electrophoresis and sedimentation, mass spectroscopy, and/or antibody-based methods. […]
# [3] = biological target: T1, G-protein-coupled receptor 40 (GPR40) (Homo sapiens, UniProt O14842); assay: Calcium responses of GPR40-expressing cells (receptor screening); type: cell-based; details: calcium responses of GPR40 and Ga16 cells, FIGS. 1A-B
# T1 construct: expressed in transfected cells; host or cells: GPR40-expressing recombinant cells
# Description: FIGS. 1A-B are a series of histographs showing the screening of potential receptors for all-trans-13,14-dihydroretinoic acid. FIG. 1A is a histogram showing calcium responses of G-protein-coupled receptor 40 and Ga16 cells to 100 μM fatty acids and retinoic acids. FIG. 2A is a histogram showing calcium responses to retinoic acid compounds at 10 μM;
# The activation of GPR40 by all-trans-13,14-dihydroretinoic acid is studied in vitro by measuring the calcium flux and internalization of GPR40 in response to all-trans-13,14-dihydroretinoic in GPR40-expressing recombinant cells. In collaboration with Dr. de Lera University of Vigo, Spain, we have produced synthetic enantiomerically pure (R) or (S) all-trans-13,14-dihydroretinol and all-trans-13,14-dihydroretinoic acid and we have determined the stereospecificity of the RetSat catalyzed reaction. Activation of GPR40 by all-trans-13,14-dihydroretinoic acid leading to secretion of insulin is studied by measuring the level of secreted insulin from INS-1 insulinoma cells or from primary pancreatic β-cells primed with all-trans-13,14-dihydroretinoic acid.
# wild type mice = assay: Injection in wild type mice, glycemia; type: in vivo
# T1 sequence (O14842 whole entry, species assumed): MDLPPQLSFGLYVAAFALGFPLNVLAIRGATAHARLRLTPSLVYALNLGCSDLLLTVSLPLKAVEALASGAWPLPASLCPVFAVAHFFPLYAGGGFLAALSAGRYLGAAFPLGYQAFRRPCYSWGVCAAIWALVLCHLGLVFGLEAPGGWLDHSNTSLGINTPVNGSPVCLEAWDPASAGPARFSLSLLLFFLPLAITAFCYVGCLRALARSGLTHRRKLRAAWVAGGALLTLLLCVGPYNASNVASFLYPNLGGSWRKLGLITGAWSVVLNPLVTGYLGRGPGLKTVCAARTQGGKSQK
SMILES,activation of retinoic acid receptor (RAR/RARE) [1],binding to RBP4 [2],activation of GPR40 [3],effect on blood glucose after injection (wild type mice)
"CC1=C(/C=C/C(C)=C/C=C/[C@H](C)CC(=O)O)C(C)(C)CCC1 (stereo in doubt) [(R)-all-trans-13,14-dihydroretinoic acid]",can activate RAR,,,
"CC1=C(/C=C/C(C)=C/C=C/[C@@H](C)CC(=O)O)C(C)(C)CCC1 (stereo in doubt) [(S)-all-trans-13,14-dihydroretinoic acid]",can activate RAR,,,
"CC1=C(/C=C/C(C)=C/C=C/[C@H](C)CCO)C(C)(C)CCC1 [(R)-all-trans-13,14-dihydroretinol, (13R)-13,14-Dihydroretinol]",can also activate RAR,associated with the carrier protein retinol binding protein 4 (RBP4),,
"CC1=C(/C=C/C(C)=C/C=C/[C@@H](C)CCO)C(C)(C)CCC1 [(S)-all-trans-13,14-dihydroretinol, (13S)-13,14-Dihydroretinol]",can also activate RAR,associated with the carrier protein retinol binding protein 4 (RBP4),,
"CC1=C(/C=C/C(C)=C/C=C/C(C)CC(=O)O)C(C)(C)CCC1 (stereo not drawn) [all-trans-13,14-dihydroretinoic acid]",activator,,"activator; also recorded: can be activated by all-trans-13,14-dihydroretinoic acid",
"CC1=C(/C=C/C(C)=C/C=C/C(C)CCO)C(C)(C)CCC1 (stereo not drawn) [all-trans-13,14-dihydroretinol]",,,,prolonged hypoglycemia
